Consider eight molecules from patent US20240239818A1, “COMPOUNDS AND COMPOSITIONS COMPRISING FLUOROPHORES FOR USE IN VISUALIZATION AND PURIFICATION OR MANIPULATION” (priority 2022, published 2024).

Data set [1] is classed as physicochemical. Here is the method:
Determination of logD7.4. The log of distribution coefficients at pH 7.4 was determined in octanol-phosphate-buffered saline (PBS) using the miniaturized shake flask setup described previously.^36, 47 Briefly, 150 mL each of octanol and PBS pH 7.4 were stirred vigorously for 12-16 h. The layers were allowed to stand for at least 24 h for phase separation. The separated layers were collected and served as PBS saturated with octanol (PBS*) and octanol saturated with PBS (octanol*). Stock solutions (1 mM or 5 mM) of ligands were prepared in DMSO and diluted in PBS* to obtain 1 μM or 10 μM (3-5 mL) of the standard (std). This standard was used to prepare appropriate dilutions using octanol*, in triplicate, in 2-mL glass vials. The leftover standard was used to determine the standard concentration (Cstd). The vials were vortexed for 1 min and shaken horizontally at 700 rpm for 2 h. The vials were then shaken upright at 150 rpm for 2 h to allow the phases to separate. The octanol* layer was pipetted out, and the PBS* layer was used for further analyses. The concentrations of ligands in the standard and PBS* (CPBS*) were determined via fluorescence measurements of 200 μL of PBS* or std in 96-well plates on the Cytation 5 Multimode Plate Reader (BioTek). For Si-rhodamine containing ligands, 2-20 μL of trifluoroacetic acid was added to each well of the 96-well plate prior to the fluorescence measurements. Reported values are averages of at least two measurements. The logD7.4 was obtained as described previously using equation 2:
[formula] • where Cstd is the standard concentration in PBS, CPBS* is the concentration in PBS after partitioning, r is the dilution factor of the standard solution, VPBS* is the volume of PBS used in the partitioning, and Voctanol* is the volume of octanol used in the partitioning.

For data set [2] the following is noted: 1:1 (v/v) dioxane-water; parent JF dyes; cited from earlier work.
Data set [3] can be described thus: Determination of lactone-zwitterion equilibrium constant (KL-Z). Conditions: 1:1 (v/v) dioxane:water. Format: physicochemical. Here is the method: Determination of KL-Z. The lactone-zwitterion equilibrium constant (KL-Z) was calculated as described previously^13, 23, 32, 45 using equation 1: […]
where εdw is the extinction coefficient of the dyes in a 1:1 (v/v) dioxane:water solvent mixture containing 0.01% (v/v) triethylamine; this dioxane water mixture was chosen to give a large range of KL-Z values,^23 and the triethylamine additive ensures the rhodamines are in the net neutral form. The εmax is the maximal extinction coefficient, measured in 0.1% (v/v) trifluoroacetic acid in 2,2,2-trifluoroethanol (TFE).

Data set [4] addresses T1, msGFP-HaloTag® fusion localized to the mitochondrial outer membrane (Rhodococcus rhodochrous, UniProt P0A3G2, A155T/A167V/A172T/A224E/C128F/C176G/D78G/E160K/E257K/H272N/K175M/K195N/L47V/L88M/N227D/S58T/T264A/Y273L/Y87F).
T1 construct: expressed in transfected cells; host or cells: HEK293T, calcium phosphate transfection
Description: HEK293T labeling and fluorescence microscopy. It is filed as cell-based. Conditions: live HEK293T cells, nanomolar concentration (100 nM, 1 h). The text has this: Plasmid construction. HaloTag®, amplified from the pHTC HaloTag® CMV-neo Vector (Promega; G7711) and monomeric-superfolder green fluorescent protein (msGFP; lab stock), was fused to the mitochondrial targeting signal from OMP25,^28 interspacing flexible GS(GSS)4 linkers between each domain by PCR Splicing by Overlap Extension (SOE). This construct was subcloned into hSynapsin promoter bearing a copy of FUGW.^29 FUGW was a gift from David Baltimore (Addgene plasmid #14883; RRID: Addgene_14883).^48 This construct was designated as pF(UG) hSyn HaloTag®-TEV-4×GS-msGFP-mito.
HEK293T cell culture. HEK293T cells (ATCC) were passaged before 80% confluency by trypsinization (Corning; 25-053-CI) and trituration. The cell suspension was then plated on glass coverslips (Warner instruments; 64-0734, CS-18R17) coated with poly-D-lysine (Thermofisher; ICN10269491) and cultured in Dulbecco's Modified Eagle Medium (DMEM; ThermoFisher; 11965-118) supplemented with 10% v/v fetal bovine serum (FBS, Atlanta Biological) and penicillin/streptomycin (pen/strep; ThermoFisher; MT-30-001-CI) at 37° C. in a humidified 5% v/v CO2 environment following ATCC guidelines. These HEK293T cells were tested for mycoplasma contamination using the Universal Mycoplasma Detection Kit (ATCC; 30-1012K) and validated using Short Tandem Repeat profiling by ATCC (ATCC; 135-XV) within the previous year.
HEK293T labeling and fluorescence microscopy. […] For pulse-chase experiments, HEK293T cells were incubated with biotin-HaloTag® ligand (6; #G8281, Promega) at either 100 nM or 10 μM for 1 hour at 37° C. and chased with 100 nM of JANELIA FLUOR® (JF)549-HaloTag® ligand (2HTL). […] For imaging, the coverslips containing HEK293T cells were fixed with 4% paraformaldehyde in PBS at 37° C. for 10 min, washed with PBS (3×), and mounted on glass slides with ProLong Glass Antifade Mountant with NucBlue™ Stain (ThermoFisher; P36981). These cells were imaged using a Zeiss LSM 880 with Airyscan and a plan-apochromatic 63×/1.40 oil objective in Fast Airyscan mode. The same image acquisition settings were used for each trial and condition. Images were then processed with automatic Airyscan deconvolution settings.

Data set [5] deals with HaloTag®-histone H2B fusion protein. Format: cell-based. The following applies: 200 nM, live U2OS cells expressing HaloTag®-H2B, 0-4 h. The protocol:
Dye loading kinetics. Live U2OS.H2B.HaloTag® stable cells were labeled over a time course of 0-4 h with 200 nM of biotin-JF549-HaloTag® ligand (12), biotin-JF608-HaloTag® ligand (13), biotin-JF646-HaloTag® ligand (14), or biotin-JF635-HaloTag® ligand (15) at 37° C. Cells were then washed 3× with dye-free media, fixed with 4% paraformaldehyde in 0.1 M phosphate buffer, pH 7.4 for 15 min at 37° C. Confocal imaging was performed on a Leica SP8 with an HC PL APO CS2 20×/0.75 immersion objective using the tunable white light laser (WLL) to excite dyes at their λabs in constant power mode. Fluorescence was quantified as the average integrated density of background corrected nuclear signals from confocal image stack projections analyzed in FIJI; n=100 nuclear signals per compound.

Data set [6] is described as follows: 1-Photon spectroscopy and quantum yield of HaloTag® ligands. Conditions: free ligand, 10 mM HEPES pH 7.3. Format: physicochemical. The protocol:
1-Photon spectroscopy of HaloTag® ligands and HaloTag® conjugates. […] All measurements were taken at ambient temperature (22 ±2° C.). Absorption spectra were recorded on a Cary Model 100 spectrometer (Agilent) using 1-cm path length 1.0-mL quartz microcuvettes from Starna Cells. Fluorescence spectra were recorded on a Cary Eclipse fluorometer (Varian) using 1-cm path length 3.5-mL quartz cuvettes (Starna Cells). As before,^13, 23, 32, 45 HaloTag® protein was used as a 100 μM solution in 1×TBS. HaloTag® ligands 12-15 (5 μM) were dissolved in 10 mM HEPES, pH 7.3, containing 0.1 mg/mL CHAPS. An aliquot of HaloTag® protein (1.5 equiv) was added, and the resulting mixture was incubated until a consistent absorbance signal was observed (60-120 min). To measure the fold-increase of absorbance upon HaloTag® binding, a “no HaloTag®” control experiment was performed where an equivalent volume of TBS blank was added in place of the protein. Reported values for extinction coefficient (ε) are averages of at least two measurements.
Quantum yield determination. All reported absolute fluorescence quantum yield values (Φf) were measured in the laboratory under identical conditions using a Quantaurus-QY spectrometer (model C11374, Hamamatsu). This instrument uses an integrating sphere to determine photons absorbed and emitted by a sample. Measurements were performed using dilute samples (absorbance<0.1), and self-absorption corrections were performed using the instrument software.^46 Reported values are averages of at least two measurements.

Where two headings read alike, the source gives them in different places.

T1 sequence (P0A3G2 other isoform, or with tags, fused parts or gaps with the stated changes): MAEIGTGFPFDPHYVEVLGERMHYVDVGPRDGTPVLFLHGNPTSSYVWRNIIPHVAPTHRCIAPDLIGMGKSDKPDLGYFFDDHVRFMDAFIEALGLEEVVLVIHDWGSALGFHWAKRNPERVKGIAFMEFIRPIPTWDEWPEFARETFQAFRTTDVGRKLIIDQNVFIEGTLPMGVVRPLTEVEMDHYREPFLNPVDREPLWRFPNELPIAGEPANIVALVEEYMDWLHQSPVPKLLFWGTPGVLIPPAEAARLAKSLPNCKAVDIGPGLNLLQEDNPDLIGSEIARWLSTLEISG

In data set [1] (octanol-PBS pH 7.4), `C[Si]1(C)c2cc(N3CCC3)ccc2C2(OC(=O)c3ccccc32)c2ccc(N3CCC3)cc21` [compound 4, JF646] had a logD7.4 of 3.98. In addition, the KL-Z in data set [2] is 0.0014.
Take `O=C1OC2(c3ccc(N4CCC4)cc3Oc3cc(N4CCC4)ccc32)c2ccccc21` [compound 2, Janelia Fluor 549]: the logD7.4 in data set [1] (pH 7.4) is 0.98. Further, the KL-Z in data set [2] is 3.5.
Molecule `CC1(C)c2cc(N3CCC3)ccc2C2(OC(=O)c3ccc(C(=O)NCCOCCOCCCCCCCl)cc32)c2ccc(N3CCC3)cc21` [3HTL, reference compound] returned a logD7.4 in data set [1] (octanol-PBS pH 7.4) of 3.55. The molecule further returned a KL-Z in data set [3] of 0.33.
The molecule `C[Si]1(C)c2cc(N3CC(F)C3)ccc2C2(OC(=O)c3ccccc32)c2ccc(N3CC(F)C3)cc21` [compound 5, JF635] returned a logD7.4 in data set [1] (octanol-PBS pH 7.4) of 4.1. In addition, the KL-Z in data set [2] is given as 0.0001.
Regarding `C[Si]1(C)c2cc(N3CCC3)ccc2C2(OC(=O)c3ccc(C(=O)NCCOCCOCCCCCCCl)cc32)c2ccc(N3CCC3)cc21` [4HTL, JF646-HaloTag® ligand, reference compound], the logD7.4 in data set [1] (octanol-PBS pH 7.4) came to 3.59. The molecule also gave a KL-Z in data set [3] of 0.010. In addition, in data set [4], the “labeling of mitochondria-localized HaloTag®-msGFP fusion” value is “labeled the mitochondria in live cells”.
For the molecule `CC1(C)c2cc(N3CCC3)ccc2C2(OC(=O)c3ccccc32)c2ccc(N3CCC3)cc21` [compound 3, JF608], in data set [1] (octanol-PBS pH 7.4), the logD7.4 was 3.78. In addition, in data set [2], the KL-Z was 0.091.
With `CC1(C)C2=CC(=[N+]3CC(C(=O)NCCOCCOCCNC(=O)CCCC[C@@H]4SC[C@@H]5NC(=O)N[C@@H]54)C3)C=CC2=C(c2cc(C(=O)NCCOCCOCCCCCCCl)ccc2C(=O)[O-])c2ccc(N3CCC3)cc21` (some centres unmarked) [compound 13, Biotin-JF608-HaloTag® ligand], in data set [1] (pH 7.4), the logD7.4 is reported as 2.63. The “time to reach saturation of labeling” value in data set [5] was determined as 4 h. This molecule registered a KL-Z in data set [3] of 0.17. For the same molecule, in data set [6], the “extinction coefficient (ε)” value was 92,300 M^−1cm^−1, the “fluorescence quantum yield (Φf)” value is 0.65, the λabs is listed as 610 nm and the λem turned out to be 634 nm.
On to `O=C(NCCOCCOCCCCCCCl)c1ccc2c(c1)C1(OC2=O)c2ccc(N3CCC3)cc2Oc2cc(N3CCC3)ccc21` [2HTL, JF549-HaloTag® ligand, reference compound], for which the logD7.4 in data set [1] (pH 7.4) was 0.82. Besides, the KL-Z in data set [3] was determined as 5.2. The “labeling of mitochondria-localized HaloTag®-msGFP fusion” value in data set [4] is reported as “labeled the mitochondria-localized HaloTag®-msGFP fusions”.
